# Experimental data: ChEMBL document CHEMBL3879905, “Methods of using macrocyclic modulators of the ghrelin receptor” (2013)
# Calls of active or inactive are those of the source. The rule behind the calls is not given here.
# Assays:
# [1] = species: Homo sapiens; experiment: Selectivity for human GSHR1a over human motilin receptor
# [2] = tested on: Rattus norvegicus; experiment: Reversal of morphine-induced intestinal transit delaying in iv dosed Sprague-Dawley rat postoperative ileus model at 100 ug/kg, iv administered prior to 99mTC labeled methylcellulose meal intake measured after 15 mins by gamma counting method; assay type: functional, organism-based
# [3] = target: Growth hormone secretagogue receptor type 1 (Homo sapiens, UniProt Q92847); experiment: Displacement of [125I]-Ghrelin from human GSHR1a transfected in HEK293 cell membranes after 30 mins by microplate scintillation and luminescence counting method
# [4] = tested on: Rattus norvegicus; experiment: Induction of gastric emptying of high caloric meal in Wistar rat gastroparesis model at 0.08 to […] mg/kg, iv after 60 mins; assay type: functional, organism-based; conditions: Stomach
# [5] = tested on: Rattus norvegicus; experiment: Gastrokinetic activity in Wistar rat gastroparesis model at 100 ug/kg, iv administered immediately post phenol red containing methylcellulose meal intake measured after 15 mins by colorimetric method relative to vehicle-treated control; assay type: functional, organism-based
# [6] = tested on: Rattus norvegicus; experiment: Induction of gastric emptying of solid meal in iv dosed Wistar rat gastroparesis model administered immediately post methylcellulose meal containing phenol red intake measured after 15 mins by colorimetric method; assay type: functional, organism-based; conditions: Stomach
# [7] = tested on: Rattus norvegicus; experiment: Induction of gastric emptying of solid meal in Sprague-Dawley rat postoperative ileus model at 100 to 300 ug/kg, iv administered prior to 99mTC labeled methylcellulose meal intake measured after 15 mins by gamma counting method relative to vehicle-treated control; assay type: functional, organism-based; conditions: Stomach
# [8] = tested on: Rattus norvegicus; experiment: Induction of gastric emptying of solid meal in Wistar rat gastroparesis model at 5 to 50 ug/kg, iv administered immediately post methylcellulose meal containing phenol red intake measured after 15 mins by colorimetric method; assay type: functional, organism-based; conditions: Stomach
# [9] = tested on: Rattus norvegicus; experiment: Effect on pulsatile growth hormone release in plasma of free moving Sprague-Dawley rat at 5 ug/kg, iv administered at 1100 and 1300 […] during 6 hrs of sampling period measured every 15 mins over 6 hrs of sampling period by radioimmunoassay relative to vehicle-treated control; assay type: functional, organism-based
# [10] = tested on: Rattus norvegicus; experiment: Induction of gastric emptying of solid meal in Wistar rat gastroparesis model at 20 ug/kg, iv administered immediately post phenol red containing methylcellulose meal intake measured after 15 mins by colorimetric method relative to vehicle-treated control; assay type: functional, Stomach
# [11] = tested on: Rattus norvegicus; experiment: Gastrokinetic activity in Wistar rat gastroparesis model at 20 ug/kg, iv administered immediately post phenol red containing methylcellulose meal intake measured after 15 mins by colorimetric method relative to vehicle-treated control; assay type: functional, organism-based
# [12] = tested on: Rattus norvegicus; experiment: Induction of gastric emptying of solid meal in Wistar rat gastroparesis model at 100 ug/kg, iv administered immediately post phenol red containing methylcellulose meal intake measured after 15 mins by colorimetric method relative to vehicle-treated control; assay type: functional, Stomach
# [13] = tested on: Rattus norvegicus; experiment: Induction of gastric emptying of solid meal in Wistar rat gastroparesis model at 30 ug/kg, iv administered immediately post methylcellulose meal containing phenol red intake measured after 15 mins by colorimetric method relative to vehicle-treated control; assay type: functional, organism-based; conditions: Stomach
# Chain of Growth hormone secretagogue receptor type 1 (Q92847 whole entry): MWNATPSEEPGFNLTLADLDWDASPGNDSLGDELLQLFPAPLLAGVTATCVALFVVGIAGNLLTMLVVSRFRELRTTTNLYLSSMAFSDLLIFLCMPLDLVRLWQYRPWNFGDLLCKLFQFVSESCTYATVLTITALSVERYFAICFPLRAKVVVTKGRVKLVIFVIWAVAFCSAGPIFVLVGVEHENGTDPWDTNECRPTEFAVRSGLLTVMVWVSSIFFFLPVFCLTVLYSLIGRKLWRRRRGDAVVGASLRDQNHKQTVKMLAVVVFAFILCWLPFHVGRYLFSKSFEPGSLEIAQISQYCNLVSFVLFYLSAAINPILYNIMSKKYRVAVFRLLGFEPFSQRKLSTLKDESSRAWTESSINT
Selectivity ratio [1],SMILES,other results
74,CC[C@H](C)[C@@H]1NCCOc2ccc(F)cc2CCCNC(=O)[C@H](Cc2cccc(Cl)c2)NC(=O)C2(CCCC2)NC1=O,
> 1700,CC(C)C1NCCOc2ccccc2/C=C\CNC(=O)C(Cc2ccccc2)NC(=O)C(C)N(C)C1=O (centres undefined),
200,CC(C)C[C@@H]1NCCOc2ccccc2/C=C\CNC(=O)[C@H](Cc2ccccc2)NC(=O)C2(CCCC2)NC1=O,
117,CC(C)[C@@H]1NCCOc2ccccc2CCCNC(=O)[C@H](Cc2ccccc2)NC(=O)C2(CCCC2)NC1=O,
> 100,CC[C@H](C)[C@@H]1NCCOc2ccccc2CCCNC(=O)[C@@H](Cc2ccccc2)NC(=O)[C@@H](C)N(C)C1=O,
400,CCC(C)[C@H]1NCCOc2ccccc2[C@H]2C[C@@H]2CNC(=O)[C@H](Cc2cccc(Cl)c2)NC(=O)C2(CCCC2)NC1=O (some centres undefined),
35,CC[C@H](C)[C@@H]1NCCCCCCCCNC(=O)[C@H](Cc2cccc(Cl)c2)NC(=O)C2(CCCC2)NC1=O,
250,C[C@@H]1C(=O)N[C@H](Cc2ccc(F)cc2)C(=O)NCCCc2cc(NS(C)(=O)=O)ccc2OCCN[C@@H](C2CC2)C(=O)N1C,
100,CC[C@H](C)[C@@H]1NCCOc2ccc(C(=O)O)cc2CCCNC(=O)[C@@H](Cc2ccccc2)NC(=O)[C@@H](C)N(C)C1=O,
714,C[C@@H]1C(=O)N[C@H](Cc2ccc(F)cc2)C(=O)NCCCc2ncccc2OCCN[C@@H](C2CC2)C(=O)N1C,
> 7700,CC[C@H](C)[C@@H]1NCCOc2ccccc2CCCNC(=O)[C@@H](Cc2ccc(F)cc2)NC(=O)[C@@H](C)N(C)C1=O,
3040,CC[C@H](C)[C@@H]1NCCOc2ccccc2CCCNC(=O)[C@@H](Cc2cccc(Cl)c2)NC(=O)[C@@H](C)N(C)C1=O,
28,CC[C@H](C)[C@@H]1NCCCCCCCCNC(=O)[C@@H](Cc2ccccc2)NC(=O)[C@@H](C)N(C)C1=O,
> 800,CC[C@H](C)[C@@H]1NCCCc2ccccc2/C=C\CNC(=O)[C@@H](Cc2ccccc2)NC(=O)[C@@H](C)N(C)C1=O,
,C[C@@H]1CN[C@@H](C2CC2)C(=O)N(C)[C@H](C)C(=O)N[C@H](Cc2ccc(F)cc2)C(=O)NCCCc2ccccc2O1,Activity [2]: Dose-dependent effect; %max [3]: 96%; Activity [4]: Active; Activity [5]: Active; Activity [6]: Dose-dependent effect; Activity [7]: Active
3010,CCC[C@@H]1NCCOc2ccccc2CCCNC(=O)[C@@H](Cc2ccccc2)NC(=O)[C@H](C)N(C)C1=O,
> 5500,C[C@@H]1C(=O)N[C@H](Cc2ccc(Cl)cc2Cl)C(=O)NCCCc2ccccc2OCCN[C@@H](C2CC2)C(=O)N1C,
,CCCCCCCC(=O)OC[C@H](NC(=O)[C@H](CO)NC(=O)CN)C(=O)N[C@@H](Cc1ccccc1)C(=O)N[C@@H](CC(C)C)C(=O)N[C@@H](CO)C(=O)N1CCC[C@H]1C(=O)N[C@@H](CCC(=O)O)C(=O)N[C@@H](Cc1cnc[nH]1)C(=O)N[C@@H](CCC(N)=O)C(=O)N[C@@H](CCCNC(=N)N)C(=O)N[C@H](C(=O)N[C@@H](CCC(N)=O)C(=O)N[C@@H](CCC(N)=O)C(=O)N[C@@H](CCCNC(=N)N)C(=O)N[C@@H](CCCCN)C(=O)N[C@@H](CCC(=O)O)C(=O)N[C@@H](CO)C(=O)N[C@@H](CCCCN)C(=O)N[C@@H](CCCCN)C(=O)N1CCC[C@H]1C(=O)N1CCC[C@H]1C(=O)N[C@@H](C)C(=O)N[C@@H](CCCCN)C(=O)N[C@@H](CC(C)C)C(=O)N[C@@H](CCC(N)=O)C(=O)N1CCC[C@H]1C(=O)N[C@@H](CCCNC(=N)N)C(=O)O)C(C)C,Activity [8]: Active; Activity [9]: Active
300,CC[C@H](C)[C@@H]1NC[C@H](C)Oc2ccccc2CCCNC(=O)[C@H](Cc2cccc(Cl)c2)NC(=O)C2(CCCC2)NC1=O,
2500,C[C@@H]1C(=O)N[C@H](Cc2ccccc2)C(=O)NCCCc2ccccc2OCCN[C@@H](C2CC2)C(=O)N1C,
1040,CC(C)C[C@@H]1NCCOc2ccccc2/C=C\CNC(=O)[C@H](Cc2ccccc2Cl)NC(=O)C2(CCCC2)NC1=O,
> 159,CC[C@H](C)[C@@H]1NCCOc2ccccc2/C=C\CNC(=O)[C@H](Cc2ccc(Cl)cc2)NC(=O)C2(CCOC2)NC1=O (some centres undefined),
3700,CC[C@H](C)[C@@H]1NCCOc2ccccc2CCCNC(=O)[C@@H](Cc2ccccc2)NC(=O)[C@@H](C)N(CC)C1=O,
71,CCC[C@@H]1NCCOc2ccccc2CCCNC(=O)[C@@H](Cc2c[nH]c3ccccc23)NC(=O)CN(C)C1=O,

Selectivity ratio [1],SMILES,other results
1080,CC(C)C[C@@H]1NCCOc2ccccc2/C=C\CNC(=O)[C@H](Cc2cccc(Cl)c2)NC(=O)C2(CCCC2)NC1=O,Activity [4]: Active
,C[C@@H]1CN[C@@H](C2CC2)C(=O)N(C)[C@H](C)C(=O)N[C@H](Cc2ccc(Cl)cc2)C(=O)NCCCc2ccc(F)cc2O1,Activity [4]: Active
3400,CCC[C@@H]1NCCOc2ccccc2/C=C\CNC(=O)[C@@H](Cc2ccccc2)NC(=O)[C@@H](C)N(C)C1=O,
> 3300,CC[C@H](C)[C@@H]1NCCOc2ccccc2/C=C\CNC(=O)[C@@H](Cc2ccccc2)NC(=O)[C@@H](C)N(C)C1=O,
2500,C[C@@H]1C(=O)N[C@H](Cc2ccc(F)cc2)C(=O)NCCCc2ccc(F)cc2OCCN[C@@H](C2CC2)C(=O)N1C,Activity [4]: Active
4300,C[C@@H]1C(=O)N[C@H](Cc2ccccc2)C(=O)NCCCc2ccccc2OCCN[C@@H](C(C)(C)C)C(=O)N1C,
4900,CC[C@H](C)[C@@H]1NCCOc2ccccc2CCCNC(=O)[C@@H](Cc2ccc3ccccc3c2)NC(=O)[C@@H](C)N(C)C1=O,
1700,CC1COc2ccccc2CCCNC(=O)[C@@H](Cc2ccc(F)cc2)NC(=O)[C@@H](C)N(C)C(=O)[C@H](C2CC2)N1 (some centres undefined),
13000,CC[C@H](C)[C@@H]1NCCOc2ccccc2CCCNC(=O)[C@@H](Cc2cccc3ccccc23)NC(=O)[C@@H](C)N(C)C1=O,
450,C[C@H]1NC(=O)C2(CCCC2)NCCOc2ccccc2/C=C\CNC(=O)[C@H](Cc2cccc(Cl)c2)NC1=O,
30000,CC[C@H](C)[C@@H]1NCCOc2ccccc2CCCNC(=O)[C@@H](Cc2ccccc2Cl)NC(=O)[C@@H](C)N(C)C1=O,
> 7100,CC[C@H](C)[C@@H]1NCCOc2ccccc2CCCNC(=O)[C@@H](Cc2ccc(OC)cc2)NC(=O)[C@@H](C)N(C)C1=O,
346,CC1(C)NC(=O)C2(CCCC2)NCCOc2ccccc2/C=C\CNC(=O)[C@H](Cc2cccc(Cl)c2)NC1=O,
222,O=C1NC/C=C/c2ccccc2OCCNC2(CCCC2)C(=O)NC2(CCCC2)C(=O)N[C@H]1Cc1ccccc1,
,C[C@@H]1C(=O)N[C@H](Cc2ccc(Cl)cc2)C(=O)NCCCc2ccccc2OCCN[C@@H](C2CC2)C(=O)N1C,Activity [4]: Active
450,C[C@H]1C(=O)N[C@@H](Cc2ccc(F)cc2)C(=O)NC[C@H]2C[C@@H]2c2ccccc2OCCN[C@H](C2CC2)C(=O)N1C,
,C[C@H](NC(=O)[C@@H](Cc1c[nH]c2ccccc12)NC(=O)[C@@H](N)Cc1cnc[nH]1)C(=O)N[C@H](Cc1c[nH]c2ccccc12)C(=O)N[C@@H](Cc1ccccc1)C(=O)N[C@@H](CCCCN)C(N)=O,Activity [10]: 40%; Activity [11]: Active
> 1700,CC(C)[C@@H]1NCCOc2ccccc2/C=C\CNC(=O)[C@H](Cc2ccccc2)NC(=O)[C@@H](C)N(C)C1=O,
,C[C@@H]1CN[C@@H](C2CC2)C(=O)N(C)[C@H](C)C(=O)N[C@H](Cc2ccc(F)cc2)C(=O)NCCCc2ccc(F)cc2O1,Activity [4]: Active
,C[C@@H]1C(=O)N[C@H](Cc2ccccc2)C(=O)NCCCc2ccc3c(c2)OC(CC3)CN[C@@H](C2CC2)C(=O)N1C (some centres undefined),Activity [4]: Active
,C[C@@H]1CN[C@@H](C2CC2)C(=O)N(C)[C@H](C)C(=O)N[C@H](Cc2ccc(Cl)cc2)C(=O)NCCCc2ccccc2O1,Activity [4]: Active
142,CCCC[C@@H]1NCCOc2ccccc2CCCNC(=O)[C@@H](Cc2ccccc2)NC(=O)CN(C)C1=O,
> 1000,CC[C@H](C)[C@@H]1NCCOc2ccccc2CCCNC(=O)[C@@H](Cc2cccs2)NC(=O)[C@@H](C)N(C)C1=O,
28000,CC[C@H](C)[C@@H]1NCCOc2ccccc2CCCNC(=O)[C@@H](Cc2ccc(Cl)cc2)NC(=O)[C@@H](C)N(C)C1=O,Activity [12]: 30 - 39%; Activity [4]: Active; Activity [5]: Active; Activity [13]: Active

SMILES,Selectivity ratio [1],other results
CCC[C@@H]1NCCOc2ccccc2CCCNC(=O)[C@@H](Cc2ccc(O)cc2)NC(=O)CN(C)C1=O,> 100,
CCC[C@@H]1NCCOc2ccccc2CCCNC(=O)[C@@H](Cc2ccccc2)NC(=O)CN(C)C1=O,304,
C[C@@H]1C(=O)N[C@H](Cc2ccc(O)c(C(C)(C)C)c2)C(=O)NCCCc2ccccc2OCCN[C@@H](C2CC2)C(=O)N1C,21,
